Reference: US12460265B2, “Post-treatment breast cancer prognosis” (Biotheranostics, Inc., priority 2010, dated 2025)

Tests used:
[1] = tested on: primary ER+ breast cancer; conditions: post-tamoxifen treatment; subjects with primary ER+ breast cancer; cited from earlier work
[2] = tested on: ER+ breast cancer; assay: NCIC CTG MA.17 case-control study: cancer recurrence after 5 years of adjuvant tamoxifen, letrozole vs placebo; assay type: in vivo, human; conditions: for Cases (cancer recurrence), number / Cases (cancer recurrence), percent: Letrozole arm
Text: Samples from the NCIC CTG MA.17 cohort (see Goss et al., J. Clin. Oncol., 26(12):1948-1955, 2008) were used. 100 cases with 200 controls were used. The 100 cases included 61 cases of distant cancer recurrence; 17 cases of local cancer recurrence; 5 cases of regional cancer recurrence; 16 cases of contralateral recurrences; and 1 unknown case. Of these, the contralateral and unknown cases were excluded.
Clinical follow-up data were available for the samples used, which were formalin-fixed paraffin-embedded (FFPE) tumor blocks from the time of diagnosis. Odds ratios were calculated with analysis of BCI, H:I, HoxB13 and MGI as continuous and categorical variables. Multivariate analysis also included age, tumor grade and treatment in the analysis. Treatment interaction: age and tumor grade were also included in the analysis. P-values were calculated for the interaction term.
STATISTICAL ANALYSES: Kaplan-Meier analysis with logrank test and Cox proportional hazards regression were performed to assess the association of gene expression indexes with clinical outcome. Multivariate Cox regression models were performed to assess the prognostic capacity of gene expression indexes after adjusting for known prognostic factors.
Proportional hazards (PH) assumption was checked by scaled Schoenfeld residuals; variables violating PH assumption were adjusted for in the model through stratification. To account for the case-cohort design of the Table 1 cohort, we used weighted Kaplan-Meier analysis and Cox regression models with modifications to handle case-cohort designs (see ^19,20 as implemented in the survey package in R (www.r-project.org). To test for interaction between dichotomized MGI and the H:I ratio in Cox regression models, the Wald statistic was used in the Table 1 cohort and likelihood ratio test was used in the last cohort.

## N#Cc1ccc(C(c2ccc(C#N)cc2)n2cncn2)cc1 [Letrozole, letrozole]
[1]
  breast cancer-free survival and distant breast cancer-free survival: improves breast cancer-free survival and distant breast cancer-free survival
[2]; High HoxB13 expression
  Cases (cancer recurrence), number: 17
  Cases (cancer recurrence), percent: (28%)
[2]; Low HoxB13 expression
  Cases (cancer recurrence), number: 14
  Cases (cancer recurrence), percent: (23%)
[2]; univariate analysis, MA.17 subjects, 95% CI in the next column
  Odds Ratio, Treatment (Placebo vs Letrozole), in relation to cancer recurrence: 2.02
